Results from US20250082781A1, “METHODS OF LOWERING BLOOD GLUCOSE AND TREATING TYPE 2 DIABETES BY ACTIVATION OF PDE4D3” (Salk Institute for Biological Studies, priority 2021, published 2025).

Key:
[1] = system: HSL phosphorylation at S660; assay: Western blot of pHSL-S660 in gWAT after injection; type: in vivo, mouse; conditions: 30 min after FGF1 injection 0.5 mg/kg
Method: (§1) Tissues were lysed in cold lysis buffer (50 mM Tris, pH 7.5, 150 mM NaCl, 1% NP40, 0.5% NaDoc, 0.1% SDS, 5% glycerol, 1 mM EDTA, protease and phosphatase inhibitors (complete and PhosSTOP (Roche)) by homogenization by bead-beater for 30 s. Samples were cleared for 10 min at 18,000 g at 4° C. and the middle clear phase was transferred to new tubes. A second 30 min centrifugation was performed and the middle clear phase was transferred to new tubes. Five ul protein extract was used for BCA assay to determine protein concentration. Samples were boiled in Laemmli buffer. SDS-PAGE and blotting were performed using gradient gels and Trans-Blot Turbo Transfer System (Bio-Rad). Antibodies used were PDE4D (12918-1-AP, Proteintech), pHSL-660 (4126S, Cell signaling), HSL (4107S, Cell Signaling), tubulin (CP06, Millipore Sigma), and GFP (A01388, GenScript). PDE4D3-pS44 phospho-specific antibody was generated using PDE4D3-S44 FRRHpSWISFDVDNGTSAGR peptide (SEQ ID NO: 20) (Mackenzie et al., 2002) by Pocono Rabbit Farm, using 70-day rabbit antibody production protocol and purified via affinity purification. Primary antibodies were incubated for 2 h at room temperature (RT) or overnight (ON) at 4° C. Blots were developed using SuperSignal West Pico PLUS Chemiluminescent Substrate (ThermoFisher Scientific) and imaged with BioRad GelDoc system.

adipose tissue explants = assay: Ex vivo lipolysis in adipose explants of treated mice; parameters: species or system mouse
Method: For in vitro lipolysis assay, cells were washed with PBS and media were changed to full growth media 1 day before experiment. Cells were serum starved for 2 h and placed in KRBH buffer (30 mM HEPES, 120 mM NaCl, 4 mM KH2PO4, 1 mM MgSO4, 0.75 mM CaCl2), and 10 mM NaHCO3) with 2% fatty acid free BSA and 5 mM glucose. FGF1 was added 10 min before induction of lipolysis with 100 nM isoprotenol (ISO). Inhibitors were added 30 min prior to FGF1 treatment unless otherwise noted. Media were collected and cells were lysed in protein extraction buffer. FFAs were measured in the media using a commercial kit (Wako-NEFAHR2) and normalized to protein concentration. For ex vivo lipolysis, the assay was modified from a published protocol (Funicello et al., 2007). Briefly, approximately 0.1 gram of adipose tissue was excised, weighed and kept in cold PBS until treatment and control tissues were collected. Tissues were cut into small pieces and incubated in same KRBH buffer as described above for 4 h. FFAs were measured and normalized by the explant weights.

[2] = system: HSL phosphorylation at S660; assay: Western blot of pHSL-S660 in 3T3-L1 adipocytes; type: cell-based; conditions: basal and ISO-stimulated, FGF1 100 ng/ml
Method: as §1

[3] = system: hepatic glucose production; assay: Pyruvate tolerance and glycerol tolerance tests; type: in vivo, mouse
Method: Pyruvate tolerance and glycerol tolerance tests were performed in ob ob and DIO mice after overnight fasting at 1.5 g kg^−1 dose using sodium pyruvate (0.2 g/ml) or 20% glycerol solution in PBS. Insulin tolerance test and glucose tolerance test were performed in ob ob mice after 8 h fasting. 2 U kg^−1 insulin (Humulin R) and 0.5 g kg^−1 glucose were used respectively. Blood glucose from tail bleeding was monitored by a OneTouch glucometer.

[4] = overnight fasted ob/ob mice, 2 h after FGF1 0.5 mg/kg

Substance: FGF1: Recombinant fibroblast growth factor 1 protein, dissolved in PBS, injected subcutaneously
- pHSL levels in gWAT [1]: decreased
- lipolysis in brown adipose tissue (adipose tissue explants; BAT explants, chow-fed mice, 6 h after FGF1 0.5 mg/kg): did not affect lipolysis in brown adipose tissue
- FGF1 suppression of lipolysis in adipose explants under PDE4 inhibition (adipose tissue explants; DIO mice gavaged with PDE4 inhibitor 1 h prior to FGF1 injection): blocked the ability of FGF1 to suppress lipolysis
- ex vivo lipolysis (adipose tissue explants; gWAT and iWAT explants, DIO adR1WT vs adR1KO, 2 h after FGF1 0.5 mg/kg): suppressed
- HSL phosphorylation at S660 (pHSL) [2]: suppressed HSL phosphorylation at S660
- pyruvate and glycerol tolerance tests ([3]; DIO mice, 2 h after FGF1 0.5 mg/kg): replicated in DIO mice
- suppression of pyruvate utilization ([3]; adR1WT vs adR1KO DIO mice): dependent on adipocyte FGFR1 expression
- glycerol tolerance test [3, 4]: no differences
- pyruvate tolerance test (glucose synthesis from pyruvate) [3, 4]: markedly reduced ability to synthesize glucose from pyruvate
